According to patent publication US11077126B2 (priority 2017, dated 2021):
Marks after values point to notes of the source that are not given here.

Legend:
[1] = system: transplanted tumor of human lymphoma U937 cells; assay: Human lymphoma in nude mice model; conditions: 30 mg/kg i.g. 30 d
Protocol: (§1) U937 cells in a logarithmic growth phase were taken and subjected to a trypan blue exclusion experiment showing that the cell viability was more than 95%, then the cells were subjected to trypsinization, centrifugation, and supernatant removal. Then cell concentration was adjusted to 1×10^7/ml with matrigel, and then each nude mouse was inoculated subcutaneously with 0.2 ml of cells at its right armpit and recorded as the first day of inoculation. […] Each group was continuously administered intragastrically for 30 days with a dose of 20 ml/kg. The mice were sacrificed the next day after drug withdrawal and the indicators were tested. The long diameter and short diameter of the tumor, and the body weight of each mouse were recorded every 3 days from drug administration to nude mouse sacrifice.
(§2) The body weight of the nude mice and the long diameter (a) and short diameter (b) of the transplanted tumor were measured every 3 days, and the tumor volume (v), relative tumor volume (RTV) and relative tumor proliferation rate (T/C) are calculated respectively according to the following formulas, wherein V=a×b^2/2; RTV=V/V0 (V0 is the tumor volume before administration, V is the tumor volume before sacrifice), and T/C (%)=treatment group RTV/model control group RTV×100%.
(§3) Each mouse was weighed and sacrificed. After the tumor was completely stripped off from the body of the mouse, the non-tumor tissues such as blood stains and fat were removed to weigh the tumor and calculate the tumor growth inhibition rate. The average tumor weight of each group of mice is used as an indicator of efficacy. Tumor growth inhibition rate (%)=(1−the average tumor weight of the treatment group/the average tumor weight of the model group)×100%.

[2] = system: transplanted tumor of human hepatocarcinoma HepG-2 cells; assay: Human hepatocarcinoma in nude mice model; conditions: HepG-2 nude mice; 30 mg/kg i.g. 30 d
Protocol: as §1, with “Then” for “U937 cells in a logarithmic growth phase were taken and subjected to a trypan blue exclusion experiment showing that the cell viability was more than 95%, then the cells were subjected to trypsinization, centrifugation, and supernatant removal. Then”
as §2, §3

[3] = system: transplanted tumor of human breast cancer MDA-MB-231 cells; assay: Human breast cancer (MDA-MB-231) in nude mice model; conditions: MDA-MB-231 nude mice; 30 mg/kg i.g. 30 d
Protocol: as §1, with “Then” for “U937 cells in a logarithmic growth phase were taken and subjected to a trypan blue exclusion experiment showing that the cell viability was more than 95%, then the cells were subjected to trypsinization, centrifugation, and supernatant removal. Then”
as §2, §3

[4] = system: transplanted tumor of human large cell lung cancer H1299 cells; assay: Human large cell lung cancer (H1299) in nude mice model; conditions: 30 mg/kg i.g. 30 d
Protocol: as §1, with “Then” for “U937 cells in a logarithmic growth phase were taken and subjected to a trypan blue exclusion experiment showing that the cell viability was more than 95%, then the cells were subjected to trypsinization, centrifugation, and supernatant removal. Then”, “matrigel,” for “matrigel, and”
as §2, §3

[5] = system: transplanted tumor of human pancreatic cancer PANC-1 cells; assay: Human pancreatic cancer in nude mice model
Protocol: as §1, with “Then” for “U937 cells in a logarithmic growth phase were taken and subjected to a trypan blue exclusion experiment showing that the cell viability was more than 95%, then the cells were subjected to trypsinization, centrifugation, and supernatant removal. Then”
as §2, with “RTV×100%” for “RTV×100%.”
as §3

[6] = system: transplanted tumor of mouse H22 liver cancer; assay: Inhibition of transplanted tumor of mouse H22 liver cancer
Protocol: The H22 cell strains cryopreserved in liquid nitrogen were resuscitated in Kunming mice. After 3 generations, the ascites of Kunming mice were taken and placed in a 50 ml centrifuge tube in which 10 ml of 0.9% normal saline was added, and then centrifuging was performed at 1000 rpm for 5 min at room temperature, and the obtained supernatant was removed. Then 10 ml of 0.9% normal saline was added to the tube to blow and mix well, and then the mixture was diluted to 5×10^6 live cells/ml with normal saline after counting. The tube was stored in ice water, and 75% ethanol was used to disinfect the skin under the right armpits of the mice. Each Kunming mouse was soon inoculated subcutaneously with 0.2 ml of the cells at the armpit of the right forelimb.
In the H22 liver cancer model, the mice inoculated with the tumor were randomly divided into groups with 10 mice in each group on the next day of inoculation. […] Each group was continuously administered intragastrically for 7 days with a dose of 20 ml/kg.
The tumor-bearing mice were weighed and sacrificed the next day after the last administration. The subcutaneous tumors were dissected and weighed. The average tumor weight of each group is calculated, and the tumor inhibition rate is calculated. Tumor inhibition rate=(1−T/C)×100%
T: average tumor weight of the drug-administered group; C: average tumor weight of the blank control group.

[7] = PANC-1 nude mice, 30 mg/kg i.g. 30 d

O=P1(N(CCCl)CCCl)NCCCO1 (stereo not shown) [Cyclophosphamide]
Body Weight (g)(d1) [1]: 19.79 ± 0.86 g
Body Weight (g)(d30) [1]: 18.85 ± 0.62 g
Inhibition Rate (%) [1]: 78.40%
Relative Tumor Proliferation Rate(T/C) [1]: 34.30%
Relative Tumor Volume (RTV) [1]: 6.37 ± 0.94
Tumor Volume (mm^3) (d1) [1]: 139.58 ± 11.25 mm^3
Tumor Volume (mm^3) (d30) [1]: 889.72 ± 59.73*** mm^3
Tumor Weight [1]: 0.38 ± 0.16 g
Body Weight (g)(d1) [2]: 22.67 ± 1.54 g
Body Weight (g)(d30) [2]: 21.52 ± 1.99 g
Inhibition Rate (%) [2]: 63.48%
Relative Tumor Proliferation Rate(T/C) [2]: 32.55%
Relative Tumor Volume (RTV) [2]: 4.27 ± 0.26
Tumor Volume (mm3) (d1) [2]: 146.12 ± 2.30 mm3
Tumor Volume (mm3) (d30) [2]: 623.67 ± 28.44 mm3
Tumor Weight [2]: 0.46 ± 0.07 g
Body Weight (g)(d1) [3]: 21.28 ± 0.95 g
Body Weight (g)(d30) [3]: 19.79 ± 1.03 g
Inhibition Rate (%) [3]: 79.75%
Relative Tumor Proliferation Rate(T/C) [3]: 28.59%
Relative Tumor Volume (RTV) [3]: 3.46 ± 0.70
Tumor Volume (mm3) (d1) [3]: 169.73 ± 11.79 mm3
Tumor Volume (mm3) (d30) [3]: 587.27 ± 30.47 mm3
Tumor Weight [3]: 0.27 ± 0.11 g
Body Weight (g)(d1) [4]: 20.92 ± 0.59 g
Body Weight (g)(d30) [4]: 18.82 ± 0.52 g
Inhibition Rate (%) [4]: 68.59%
Relative Tumor Proliferation Rate(T/C) [4]: 31.47%
Relative Tumor Volume (RTV) [4]: 6.13 ± 0.82
Tumor Volume (mm3) (d1) [4]: 115.38 ± 13.82 mm3
Tumor Volume (mm3) (d30) [4]: 707.28 ± 26.96 mm3
Tumor Weight [4]: 0.56 ± 0.11 g
Relative Tumor Proliferation Rate(T/C) ([5]; 30 mg/kg): 54.55%
Relative Tumor Volume (RTV) ([5]; 30 mg/kg): 5.54 ± 0.72
Tumor Volume (mm3) (d1) ([5]; 30 mg/kg, d1): 93.73 ± 8.27 mm3
Tumor Volume (mm3) (d30) ([5]; 30 mg/kg, d30): 515.49 ± 32.36 mm3
Body Weight (g)(d1) [5, 7]: 21.89 ± 1.88 g
Body Weight (g)(d30) [5, 7]: 19.92 ± 1.68 g
Inhibition Rate (%) [5, 7]: 80.43%
Tumor Weight [5, 7]: 0.73 ± 0.09 g
tumour ([6]; 26 mg/kg, positive drug group): 0.53 ± 0.24 g
Inhibition Rate (%) ([6]; 26 mg/kg, positive drug group, by tumor weight): 47.25%
Body Weight (g)(d1) ([6]; 26 mg/kg, positive drug group, d1): 23.50 ± 1.90 g
Body Weight (g) (d7) ([6]; 26 mg/kg, positive drug group, d7): 25.13 ± 2.69 g
weight compared with the normal control group ([6]; H22 liver cancer mice, cyclophosphamide 26 mg/kg): slight decrease in weight
tumor inhibition rate ([6]; Kunming mouse H22 liver cancer, cyclophosphamide 26 mg/kg i.g. 7 days): 47.25%
